Source: paper PMC8546056 (Nature Communications, 2021)

Legend:
B/Malaysia/2506/2004 NA = tested on: T1, B/Malaysia/2506/2004 NA; type: biochemical, Influenza B virus
T1 construct: recombinant NA secreted from High Five insect cells (baculovirus); N-terminal VASP tetramerization domain

WSEIV NA = WSEIV NA (Wuhan spiny eel influenza virus, UniProt A0A2P1GNP4); type: biochemical
[1] = tested on: CC(=O)N[C@H]1[C@H]([C@H](O)[C@H](O)CO)O[C@](Oc2ccc3c(C)cc(=O)oc3c2)(C(=O)O)C[C@@H]1O; experiment: purified protein; settings: 37.0 °C

CC(=O)N[C@H]1[C@H]([C@H](O)[C@H](O)CO)O[C@](Oc2ccc3c(C)cc(=O)oc3c2)(C(=O)O)C[C@@H]1O [MUNANA, 4-methylumbelli-feryl N-acetyl-α-D-neuraminic acid]
Km (B/Malaysia/2506/2004 NA): 137 ± 23.7 µM

CCOC(=O)C1=C[C@@H](OC(CC)CC)[C@H](NC(C)=O)[C@@H](N)C1 [oseltamivir]
dose-dependent inhibition (WSEIV NA): The WSEIV NA was sensitive to oseltamivir

WSEIV NA (Wuhan spiny eel influenza virus)
Km [1]: 118.5 ± 18.3 µM
